In assay [1] the target is T1, recombinant full length human JNK3 enzyme (Homo sapiens, UniProt P53779).
T1 construct: recombinant full length human JNK2 or JNK3 enzyme; purchased Upstate; host or cells: Sf21 cells
Kind of assay: JNK 3 inhibition assay (ATP depletion, luciferase). To be noted: for IC50: 10 uM ATP, ATF2 substrate. In kind it is biochemical. Here is the method: In a 96-well plate, recombinant full length human JNK2 or JNK3 enzyme (40 ng) expressed in Sf21 cells (Upstate) was incubated with the substrate ATF2 (3 uM) for 1 hour in the presence of 10 uM ATP. […] The ATP levels were quantified using luciferase with luminescence read on a Victor Light 1420 luminometer. IC50 calculations were plotted using a nonlinear regression curve fit.

Assay [2] addresses T2, recombinant human phosphodiesterase 10A1 enzyme (Homo sapiens, UniProt Q9Y233).
T2 construct: purchased BPS Biosciences; host or cells: Baculovirus infected Sf9 cells
The assay is described as follows: PDE10 inhibition assay (PDELight). To be noted: for IC50: 1 uM cAMP, read-out: PDE 10 Inhibition (IC50 in μM); for PDE-10 inhibition (in words): Table 2. Format: biochemical. Here is the method: In a 96-well plate, recombinant human phosphodiesterase 10A1 enzyme (10 U/well) expressed in Baculovirus infected Sf9 cells (BPS Biosciences) was combined with 1 uM cAMP substrate (Sigma). […] Using a PDELight® kit (Cambrex), the amount of AMP produced in the reaction from the hydrolysis of cAMP was quantified using PDELight AMP Detection Reagent which converts the AMP directly to ATP. The assay uses luciferase, which catalyses the formation of light from the newly formed ATP and luciferin. The luminescence was read on a Victor Light 1420 luminometer. IC50 calculations were plotted using a nonlinear regression curve fit.

In assay [3] the target is T3, catalytic domain of phosphodiesterase 4B enzyme cloned from human brain (Homo sapiens, UniProt Q07343).
T3 construct: the catalytic domain of phosphodiesterase 4B enzyme; purchased Scottish Biomedical
Kind of assay: PDE4 inhibition assay (PDELight). To be noted: for IC50: 5 uM cAMP, read-out: PDE 4 Inhibition (IC50 in μM). Format: biochemical. Here is the method: In a 96-well plate, the catalytic domain of phosphodiesterase 4B enzyme (40 mU/well) cloned from human brain (Scottish Biomedical) was combined with 5 uM cAMP substrate (Sigma). […] Using a PDELight® kit (Cambrex), the amount of AMP produced in the reaction from the hydrolysis of cAMP was quantified using PDELight AMP Detection Reagent which converts the AMP directly to ATP. The assay uses luciferase, which catalyses the formation of light from the newly formed ATP and luciferin. […] IC50 calculations were plotted using a nonlinear regression curve fit.

Assay [4] deals with rat chronic constriction injury (CCI) model of neuropathic pain. The assay is described as follows: Rat chronic constriction injury (CCI) model of neuropathic pain. Format: in vivo. Conditions: IP, dose not given; 50% paw withdrawal threshold, von Frey. As for the experimental part: To induce allodynia, male Sprague-Dawley rats underwent chronic constriction injury (CCI) to the sciatic nerve as described by Bennett and Xie, Pain 1988; 33(1):87-107. The plantar surface of the hind paws was stimulated with von Frey filaments (Stoelting) to induce a withdrawal response by blinded personnel. The bending force of fiber required to induce a 50% withdrawal response was calculated following CCI surgery (pre-dosing baseline). N=5-6 allodynic rats received a single IP or oral administration of test compounds or vehicle. Two hours post-dosing, 50% paw withdrawal threshold was determined again by blinded testers using von Frey filaments. The 50% withdrawal threshold prior to CCI surgery, pre-dosing (10 days post-surgery), and 2 hours post-dosing are plotted.
For selected compounds multi-day studies were perfumed with pre-determined schedules for dosing and withdrawal threshold assessments.

Assay [5] relates to Mouse BV-2 microglial cells. The assay is described as follows: BV-2 glial cell assay (TNF-α and MCP-1 by Luminex). In kind it is cell-based. Conditions: Mus musculus, BV-2, LPS and IFN-γ activated, 20 hours. Here is the method: Mouse BV-2 microglial cells were seeded on 96-well plates at a concentration of 3×10^4 cells/well. Cells were activated with 100 ng/mL LPS and IFN-γ (100 ng/mL) in the presence or absence of test compounds (0-30 uM). Following incubation for 20 hours, cells were spun down and supernatant collected. The supernatant was analyzed via Luminex for the presence of TNF-α and MCP-1.

The target of assay [6] is T4, recombinant full length human JNK2 enzyme (Homo sapiens, UniProt P45984).
T4 construct: recombinant full length human JNK2 or JNK3 enzyme; purchased Upstate; host or cells: Sf21 cells
The assay is described as follows: JNK 2 inhibition assay (ATP depletion, luciferase). To be noted: 10 uM ATP, ATF2 substrate; read-out: JNK 2 Inhibition (IC50 in μM). Format: biochemical. Here is the method:
In a 96-well plate, recombinant full length human JNK2 or JNK3 enzyme (40 ng) expressed in Sf21 cells (Upstate) was incubated with the substrate ATF2 (3 uM) for 1 hour in the presence of 10 uM ATP. […] IC50 calculations were plotted using a nonlinear regression curve fit.

Where two headings read alike, the source gives them in different places.

T3 sequence (Q07343 330-659 limits assumed): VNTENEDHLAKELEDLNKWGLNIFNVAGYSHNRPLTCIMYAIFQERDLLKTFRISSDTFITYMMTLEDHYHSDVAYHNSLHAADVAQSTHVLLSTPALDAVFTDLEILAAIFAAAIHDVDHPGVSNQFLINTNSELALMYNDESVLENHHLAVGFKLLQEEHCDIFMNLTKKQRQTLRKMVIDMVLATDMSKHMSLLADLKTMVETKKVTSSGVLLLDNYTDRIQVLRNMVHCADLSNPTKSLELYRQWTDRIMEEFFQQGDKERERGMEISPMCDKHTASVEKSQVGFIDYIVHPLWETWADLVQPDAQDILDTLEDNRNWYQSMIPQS
T2 sequence (Q9Y233 1-779 isoform Q9Y233-1): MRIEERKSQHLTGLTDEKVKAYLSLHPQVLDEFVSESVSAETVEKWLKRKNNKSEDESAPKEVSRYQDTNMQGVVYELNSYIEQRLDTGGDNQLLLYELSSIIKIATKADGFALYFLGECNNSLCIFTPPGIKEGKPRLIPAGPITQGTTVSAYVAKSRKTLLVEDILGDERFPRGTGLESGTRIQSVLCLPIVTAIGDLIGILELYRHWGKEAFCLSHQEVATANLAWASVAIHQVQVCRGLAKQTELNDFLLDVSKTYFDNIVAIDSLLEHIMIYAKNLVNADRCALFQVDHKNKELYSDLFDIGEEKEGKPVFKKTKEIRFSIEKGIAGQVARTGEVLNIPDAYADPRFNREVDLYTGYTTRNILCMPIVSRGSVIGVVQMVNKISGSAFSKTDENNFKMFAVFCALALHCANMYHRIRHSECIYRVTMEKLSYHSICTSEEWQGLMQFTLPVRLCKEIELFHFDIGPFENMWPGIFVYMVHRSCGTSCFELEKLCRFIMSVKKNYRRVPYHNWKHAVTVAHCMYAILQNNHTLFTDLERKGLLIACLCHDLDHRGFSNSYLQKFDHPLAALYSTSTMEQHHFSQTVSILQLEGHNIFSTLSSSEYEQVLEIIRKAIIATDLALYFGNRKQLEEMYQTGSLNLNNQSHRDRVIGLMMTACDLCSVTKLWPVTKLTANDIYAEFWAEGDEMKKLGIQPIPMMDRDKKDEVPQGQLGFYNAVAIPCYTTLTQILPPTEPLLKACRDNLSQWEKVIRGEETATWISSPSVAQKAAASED
T1 sequence (P53779 whole entry): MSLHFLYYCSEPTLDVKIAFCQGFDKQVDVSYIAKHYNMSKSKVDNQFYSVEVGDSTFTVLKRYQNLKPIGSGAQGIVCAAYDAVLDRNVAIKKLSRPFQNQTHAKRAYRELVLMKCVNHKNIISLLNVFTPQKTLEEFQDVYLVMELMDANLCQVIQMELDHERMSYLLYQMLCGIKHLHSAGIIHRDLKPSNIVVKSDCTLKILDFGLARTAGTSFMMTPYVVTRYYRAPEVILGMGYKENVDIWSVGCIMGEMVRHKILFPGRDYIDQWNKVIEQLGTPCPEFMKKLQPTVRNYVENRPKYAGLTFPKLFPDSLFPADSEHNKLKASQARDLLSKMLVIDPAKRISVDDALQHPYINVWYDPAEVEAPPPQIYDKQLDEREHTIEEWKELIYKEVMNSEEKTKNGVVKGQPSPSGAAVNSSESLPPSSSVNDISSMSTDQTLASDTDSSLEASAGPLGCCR
T4 sequence (P45984 whole entry): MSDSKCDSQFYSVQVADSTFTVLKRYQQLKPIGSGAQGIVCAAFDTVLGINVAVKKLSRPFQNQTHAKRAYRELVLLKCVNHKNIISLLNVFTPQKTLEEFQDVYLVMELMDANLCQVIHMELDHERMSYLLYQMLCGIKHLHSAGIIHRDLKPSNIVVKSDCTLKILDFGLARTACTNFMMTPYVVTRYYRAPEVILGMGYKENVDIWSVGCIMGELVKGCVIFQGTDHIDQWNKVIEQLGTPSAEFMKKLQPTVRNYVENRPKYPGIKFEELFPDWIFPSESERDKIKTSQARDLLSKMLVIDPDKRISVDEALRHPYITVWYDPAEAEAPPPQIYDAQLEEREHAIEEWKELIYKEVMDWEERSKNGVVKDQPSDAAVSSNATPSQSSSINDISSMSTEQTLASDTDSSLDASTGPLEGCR

As a reminder, the IC50 is the concentration needed to halve the response being measured. `CC(C)c1nn2ccccc2c1-c1ccnc(N)c1` [AV105, 4-(-2-isopropylpyrazolo[1,5-a]pyridin-3-yl)pyridin-2-amine]: the half-inhibitory concentration (IC50) in assay [1] was over 100 µM; in assay [2], over 100 µM; in assay [3], 22 µM.
Regarding `CC(C)c1nn2ccccc2c1-c1ccnc(NC2CCCC2)c1` [AV1021, N-cyclopentyl-4-(-2-isopropylpyrazolo[1,5-a]pyridin-3-yl)pyridin-2-amine], the results for the IC50 in assay [1], in assay [2] and in assay [3] were over 100 µM, 12 µM and over 100 µM, respectively.
As for `CC(C)c1nn2ccccc2c1-c1ccnc(NCCCN2CCN(C)CC2)n1` [AV1135, 4-(2-isopropylpyrazolo[1,5-a]pyridin-3-yl)-N-(3-(4-methylpiperazin-1-yl)propyl)pyrimidin-2-amine], the IC50 in assay [1] was 83 µM; in assay [2], 19 µM; in assay [3], over 100 µM. Further, the “IP CCI efficacy (Change in grams)” value in assay [4] is 0 grams.
For `CC(C)c1nn2ccccc2c1-c1ccnc(N)n1` [AV1139, 4-(2-isopropylpyrazolo[1,5-a]pyridin-3-yl)pyrimidin-2-amine] the same measures were 18 µM, over 100 µM, over 100 µM and 0.21 grams.
With `CCC(CC)Nc1nccc(-c2c(C(C)C)nn3ccccc23)n1` [AV1155, 4-(2-isopropylpyrazolo[1,5-a]pyridin-3-yl)-N-(pentan-3-yl)pyrimidin-2-amine], the IC50 in assay [1] was 27 µM; in assay [2] it was 42 µM; in assay [3], 5.9 µM. For the same molecule, the “IP CCI efficacy (Change in grams)” value in assay [4] was determined as 0.67 grams. The “PDE-4 inhibition (in words)” value in assay [3] was “particularly effective”.
Turning to `CC(C)Nc1nccc(-c2c(C(C)(C)C)nn3ccccc23)n1` [AV1157, 4-(2-tert-butylpyrazolo[1,5-a]pyridin-3-yl)-N-isopropylpyrimidin-2-amine], the half-inhibitory concentration (IC50) in assay [1], in assay [2] and in assay [3] was over 100 µM in each case.
For `CC(C)c1nn2ccccc2c1-c1ccnc(NC2CCNC2)n1` (centres unmarked) [AV1159, 4-(2-isopropylpyrazolo[1,5-a]pyridin-3-yl)-N-(pyrrolidin-3-yl)pyrimidin-2-amine], the “IP CCI efficacy (Change in grams)” value in assay [4] is 0 grams.
For `CC(C)Nc1nccc(-c2c(-c3cccc(F)c3)nn3ccccc23)n1` [AV1179, 4-(2-(3-fluorophenyl)pyrazolo[1,5-a]pyridin-3-yl)-N-isopropylpyrimidin-2-amine], the half-inhibitory concentration (IC50) was 0.2 µM in assay [1], over 100 µM in assay [2] and over 100 µM in assay [3]. For the same molecule, the “JNK-3 inhibition (in words)” value in assay [1] (see Table 2) is listed as “particularly effective”.
With `CC(C)Nc1nccc(-c2cccc3cc(C(C)C)nn23)n1` [AV1185, N-isopropyl-4-(2-isopropylpyrazolo[1,5-a]pyridin-7-yl)pyrimidin-2-amine], the IC50 in assay [1] was over 100 µM; in assay [2], over 100 µM; in assay [3] it was 57 µM.
On to `CC(C)c1cc2cccc(-c3ccnc(NC4CCCC4)n3)n2n1` [AV1186, N-cyclopentyl-4-(2-isopropylpyrazolo[1,5-a]pyridin-7-yl)pyrimidin-2-amine], for which the IC50 in assay [1] and in assay [2] was over 100 µM throughout.
`CC(C)Nc1nccc(-c2cccc3ccnn23)n1` [AV1187, N-isopropyl-4-(pyrazolo[1,5-a]pyridin-7-yl)pyrimidin-2-amine]: the half-inhibitory concentration (IC50) in assay [1] and in assay [2] was over 100 µM each time.
Turning to `c1cc(-c2ccnc(NC3CCCC3)n2)n2nccc2c1` [AV1188, N-cyclopentyl-4-(pyrazolo[1,5-a]pyridin-7-yl)pyrimidin-2-amine], the half-maximal inhibitory concentration (IC50) in assay [1] and in assay [2] was over 100 µM throughout.
As for `CC(C)c1nn2ccccc2c1-c1ccnc(NS(C)(=O)=O)n1` [AV1189], the half-inhibitory concentration (IC50) in assay [1] and in assay [2] was over 100 µM each time.
As for `CC(C)c1nn2ccccc2c1-c1ccnc(NS(=O)(=O)c2ccccc2)n1` [AV1190], the figures for the half-maximal inhibitory concentration (IC50) in assay [1] and in assay [3] were over 100 µM and 40 µM, respectively.
On to `Cc1nn2ccccc2c1-c1ccnc(NS(=O)(=O)c2ccsc2)n1` [AV1191], for which the concentration for half-maximal inhibition (IC50) was over 100 µM in assay [1], over 100 µM in assay [2] and 6.8 µM in assay [3].
As to `O=S(=O)(Nc1nccc(-c2cnn3ccccc23)n1)c1ccccc1` [AV1193], the IC50 in assay [1] was 53 µM; in assay [2] it was over 100 µM; in assay [3] it was 9.4 µM.
For the molecule `CC(C)c1nn2ccccc2c1-c1ccc(N)nc1` [AV1196, 5-(2-isopropylpyrazolo[1,5-a]pyridin-3-yl)pyridin-2-amine], in assay [1], the IC50 is 68 µM. In assay [2], the IC50 came out at 8.3 µM and the “PDE-10 inhibition (in words)” value is reported as “particularly effective”. Also, in assay [3], the “PDE-4 inhibition (in words)” value is “particularly effective” and the IC50 was determined as 20.8 µM.
Take `CC(C)Nc1ccc(-c2c(C(C)C)nn3ccccc23)cn1` [AV1197, N-isopropyl-5-(2-isopropylpyrazolo[1,5-a]pyridin-3-yl)pyridin-2-amine]: the values for the half-maximal inhibitory concentration (IC50) in assay [1], in assay [2] and in assay [3] were over 100 µM, 17 µM and 50.5 µM, respectively.
On to `CC(C)c1nn2ccccc2c1-c1ccc(NC2CCCC2)nc1` [AV1199, N-cyclopentyl-5-(2-isopropylpyrazolo[1,5-a]pyridin-3-yl)pyridin-2-amine], for which the IC50 in assay [1] is over 100 µM; in assay [2], 7.1 µM; in assay [3], 43 µM. Further, the “PDE-10 inhibition (in words)” value in assay [2] is given as “particularly effective”.
In the case of `CC(C)Nc1cc(-c2c(C(C)C)nn3ccccc23)ccn1` [AV1202, N-isopropyl-4-(-2-isopropylpyrazolo[1,5-a]pyridin-3-yl)pyridin-2-amine], the values for the half-inhibitory concentration (IC50) in assay [1], in assay [2] and in assay [3] were over 100 µM, 13 µM and over 100 µM, respectively.
Broadly, the EC50 is the concentration needed to bring the measured effect to its halfway point. Regarding `CC(C)c1nn2ccccc2c1-c1cnc(N)nc1` [AV1203, 5-(-2-isopropylpyrazolo[1,5-a]pyridin-3-yl)pyrimidin-2-amine], the IC50 in assay [1] is over 10 µM; in assay [2], 3.8 µM; in assay [3] it was 9.9 µM; in assay [6] it was over 100 µM. Also, the half-maximal effective concentration (EC50) was 0.3 µM in assay [5] (read-out: MCP-1 BV-2 (EC50 in μM)) and 0.8 µM in assay [5] (read-out: TNF-a BV-2 (EC50 in μM)).
Consider `CC(C)Nc1ncc(-c2c(C(C)C)nn3ccccc23)cn1` [AV1206, N-isopropyl-5-(-2-isopropylpyrazolo[1,5-a]pyridin-3-yl)pyrimidin-2-amine], for which the IC50 is over 100 µM in assay [1], 7.4 µM in assay [2] and 43 µM in assay [3].
For `CC(C)c1nn2ccccc2c1-c1cnc(NC2CCCC2)nc1` [AV1207, N-cyclopentyl-5-(-2-isopropylpyrazolo[1,5-a]pyridin-3-yl)pyrimidin-2-amine] the same measures were over 100 µM, 3.2 µM and 24 µM.
The corresponding values for `CC(C)c1nn2ccccc2c1-c1ccnc(N(C)C)c1` [AV1208, 4-(-2-isopropylpyrazolo[1,5-a]pyridin-3-yl)-N,N-dimethylpyridin-2-amine] are over 100 µM, 5.4 µM and 3.9 µM.
On to `COc1ccc(Cc2nccc3cc(OC)c(OC)cc23)cc1OC` [Papaverine, reference compound], for which, in assay [4], the “IP CCI efficacy (Change in grams)” value is 1.35 grams.

For the origin of these results see patent publication US20110039873A1, “SUBSTITUTED PYRAZOLO[1,5-a] PYRIDINE COMPOUNDS HAVING MULTI-TARGET ACTIVITY” (priority 2009, published 2011).
